Format in all cases: biochemical
The target of one assay is BoNT/A LC (Clostridium botulinum, UniProt P0DPI0).
Another assay deals with MMP-1 (Homo sapiens, UniProt P03956). Conditions: read-out: IC50 MMP-1 (FRET assay).
The target in the next assay is BaLF (Bacillus anthracis, UniProt P15917). Conditions: read-out: IC50 BaLF FRET.
In another assay the target is MMP-2 (Homo sapiens, UniProt P08253). Conditions: read-out: IC50 MMP-2 (FRET assay).
For a further assay, the target named is BoNT/B LC (Clostridium botulinum, UniProt P10844). The settings on record: read-out: IC50 BoNT/B LC FRET.
The target of a further assay is MMP-9 (Homo sapiens, UniProt P14780). The settings on record: read-out: IC50 MMP-9 (FRET assay).

The values below come from publication PMC3509773 (The botulinum journal, 2011).

SMILES strings stand for the structures.

MMP-1, sequence (P03956 100-469): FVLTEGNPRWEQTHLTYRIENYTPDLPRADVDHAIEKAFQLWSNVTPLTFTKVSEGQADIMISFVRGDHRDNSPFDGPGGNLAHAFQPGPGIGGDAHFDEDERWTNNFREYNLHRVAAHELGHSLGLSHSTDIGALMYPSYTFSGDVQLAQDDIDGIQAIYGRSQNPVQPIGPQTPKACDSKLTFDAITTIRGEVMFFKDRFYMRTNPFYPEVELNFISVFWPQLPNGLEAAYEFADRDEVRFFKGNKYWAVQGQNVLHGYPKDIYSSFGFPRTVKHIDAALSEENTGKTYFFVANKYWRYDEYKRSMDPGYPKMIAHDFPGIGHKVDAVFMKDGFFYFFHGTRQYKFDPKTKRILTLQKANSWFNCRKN
MMP-9, sequence (P14780 94-707): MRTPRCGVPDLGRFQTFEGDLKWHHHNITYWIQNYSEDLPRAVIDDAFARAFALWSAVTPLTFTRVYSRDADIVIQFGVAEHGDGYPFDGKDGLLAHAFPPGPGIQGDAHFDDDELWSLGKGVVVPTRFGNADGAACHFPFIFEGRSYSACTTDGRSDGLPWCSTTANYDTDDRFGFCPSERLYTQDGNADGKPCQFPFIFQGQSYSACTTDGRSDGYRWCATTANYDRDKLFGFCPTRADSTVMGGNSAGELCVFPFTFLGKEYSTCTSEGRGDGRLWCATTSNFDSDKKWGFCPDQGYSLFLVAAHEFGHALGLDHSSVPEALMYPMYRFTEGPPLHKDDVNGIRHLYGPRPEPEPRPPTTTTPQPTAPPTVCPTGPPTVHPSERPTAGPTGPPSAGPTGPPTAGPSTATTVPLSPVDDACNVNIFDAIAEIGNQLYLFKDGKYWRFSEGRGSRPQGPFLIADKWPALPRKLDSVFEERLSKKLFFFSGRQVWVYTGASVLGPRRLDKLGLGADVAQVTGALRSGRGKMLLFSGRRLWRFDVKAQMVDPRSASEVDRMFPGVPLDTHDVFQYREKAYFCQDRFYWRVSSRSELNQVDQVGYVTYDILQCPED
BoNT/B LC, sequence (P10844 2-441 limits assumed): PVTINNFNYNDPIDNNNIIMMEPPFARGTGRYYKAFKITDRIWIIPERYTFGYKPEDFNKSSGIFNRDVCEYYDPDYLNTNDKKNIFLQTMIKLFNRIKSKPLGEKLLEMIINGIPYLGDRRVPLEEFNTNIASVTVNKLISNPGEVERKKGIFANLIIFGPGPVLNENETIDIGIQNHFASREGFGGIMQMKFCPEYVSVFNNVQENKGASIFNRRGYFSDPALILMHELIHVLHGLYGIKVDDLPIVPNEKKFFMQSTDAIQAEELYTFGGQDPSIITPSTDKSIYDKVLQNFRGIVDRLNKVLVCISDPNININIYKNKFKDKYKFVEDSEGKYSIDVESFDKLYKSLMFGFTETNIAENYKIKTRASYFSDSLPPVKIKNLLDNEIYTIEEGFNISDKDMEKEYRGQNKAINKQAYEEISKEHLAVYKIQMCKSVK
BaLF, sequence (P15917 34-809 limits assumed): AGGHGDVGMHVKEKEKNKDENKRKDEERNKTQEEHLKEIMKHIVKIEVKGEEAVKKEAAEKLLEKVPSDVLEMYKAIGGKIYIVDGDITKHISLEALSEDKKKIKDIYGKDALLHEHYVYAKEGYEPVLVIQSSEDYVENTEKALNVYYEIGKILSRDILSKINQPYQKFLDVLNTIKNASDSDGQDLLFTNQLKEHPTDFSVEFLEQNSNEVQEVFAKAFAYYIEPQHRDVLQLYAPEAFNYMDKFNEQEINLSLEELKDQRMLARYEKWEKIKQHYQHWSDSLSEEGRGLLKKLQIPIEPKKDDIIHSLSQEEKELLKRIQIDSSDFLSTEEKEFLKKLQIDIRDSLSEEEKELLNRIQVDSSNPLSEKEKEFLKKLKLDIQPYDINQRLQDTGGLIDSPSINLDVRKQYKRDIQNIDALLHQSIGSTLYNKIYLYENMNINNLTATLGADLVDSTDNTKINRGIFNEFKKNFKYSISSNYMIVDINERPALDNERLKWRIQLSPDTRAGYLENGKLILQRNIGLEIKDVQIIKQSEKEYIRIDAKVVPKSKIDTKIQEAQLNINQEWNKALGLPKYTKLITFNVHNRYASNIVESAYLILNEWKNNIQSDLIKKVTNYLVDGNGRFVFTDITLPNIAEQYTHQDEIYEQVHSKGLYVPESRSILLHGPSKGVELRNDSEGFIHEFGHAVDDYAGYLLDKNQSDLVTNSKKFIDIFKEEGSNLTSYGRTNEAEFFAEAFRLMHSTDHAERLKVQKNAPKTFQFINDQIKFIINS
MMP-2, sequence (P08253 110-660): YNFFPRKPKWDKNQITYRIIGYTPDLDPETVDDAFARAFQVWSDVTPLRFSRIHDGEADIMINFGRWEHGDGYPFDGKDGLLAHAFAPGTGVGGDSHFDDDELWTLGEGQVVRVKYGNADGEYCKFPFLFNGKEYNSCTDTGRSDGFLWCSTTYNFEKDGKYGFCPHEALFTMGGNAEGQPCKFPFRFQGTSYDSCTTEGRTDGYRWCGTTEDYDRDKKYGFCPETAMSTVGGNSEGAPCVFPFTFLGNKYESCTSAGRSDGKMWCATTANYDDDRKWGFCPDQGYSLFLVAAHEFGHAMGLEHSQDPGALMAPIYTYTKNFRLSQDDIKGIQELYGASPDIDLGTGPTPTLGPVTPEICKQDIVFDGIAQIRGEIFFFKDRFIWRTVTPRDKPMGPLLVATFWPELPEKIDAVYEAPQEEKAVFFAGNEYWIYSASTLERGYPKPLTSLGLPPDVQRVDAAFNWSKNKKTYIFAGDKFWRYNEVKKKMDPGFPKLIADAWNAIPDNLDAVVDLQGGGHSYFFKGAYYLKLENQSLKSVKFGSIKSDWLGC
BoNT/A LC, sequence (P0DPI0 2-448 limits assumed): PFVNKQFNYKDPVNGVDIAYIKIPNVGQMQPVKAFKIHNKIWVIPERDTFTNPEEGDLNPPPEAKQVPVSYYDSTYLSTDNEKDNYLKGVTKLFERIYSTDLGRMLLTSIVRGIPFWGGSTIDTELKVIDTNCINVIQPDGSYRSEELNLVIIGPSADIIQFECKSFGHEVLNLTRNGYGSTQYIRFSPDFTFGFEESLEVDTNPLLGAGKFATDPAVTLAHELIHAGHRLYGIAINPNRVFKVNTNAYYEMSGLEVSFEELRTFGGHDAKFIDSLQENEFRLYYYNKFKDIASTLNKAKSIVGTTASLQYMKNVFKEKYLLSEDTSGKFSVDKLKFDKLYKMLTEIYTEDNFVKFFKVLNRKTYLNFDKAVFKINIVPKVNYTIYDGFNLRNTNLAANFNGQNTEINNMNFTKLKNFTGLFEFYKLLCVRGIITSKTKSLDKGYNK

Turning to `[Cl-].[Cl-].[Zn+2]` [zinc chloride], on BoNT/A LC, the “inhibition of BoNT/A LC activity” value was 4–5%.
In the case of `O=C(C=Cc1ccc(Cl)cc1Cl)NO` [Hydroxamate, N-Hydroxy-2,4-dichlorocinnanamide], the IC50 on MMP-1, on BaLF, on MMP-2, at BoNT/B LC and on MMP-9 was greater than 100 µM each time.
